Patent US10463649B2, “Inhibitors of Mc1-1 as drugs to overcome resistance to BRAF inhibitors and MEK inhibitors” (Texas Tech University System, priority 2015, dated 2019)

Key:
Format in all cases: cell-based
SK-MEL-28 cells = assay: Development of resistance to vemurafenib in SK-MEL-28 cells, cytotoxicity evaluated intermittently by SRB assay; settings: for IC50: Homo sapiens; for Fold Resistance: SK-MEL-28
Method: (§1) Generation of BRAF-inhibitor resistant cell lines. Vemurafenib resistant clones of A375 and SK-MEL-28 were generated by continuous exposure of cells to escalating concentrations of vemurafenib over a period of one year. The cells were treated with vemurafenib for 72 hours after which fresh media was added to the cells. In all, cells were exposed weekly to two treatments of vemurafenib for 72 hours each with a 24 hour recovery period between the treatments. […] Similarly, dabrafenib resistant cells were cultured by incubating the cells with increasing concentrations of the drug for a period of 3 months as described above. The fold resistant was intermittently evaluated by cytotoxicity analysis. Vemurafenib resistant cell lines were referred to as SK-MEL-28-R or A375-R and dabrafenib resistant cell lines were referred to as A375-DR, SK-MEL-28-DR or WM-239-DR. […] Here, A375 cells were injected subcutaneously in nude mice. When palpable tumors were formed, the mice were orally treated with 30 mg/kg vemurafenib twice a day. After a month, the tumors the resisted vemurafenib treatments were extracted and cultured in vitro.
(§2) Cells were exposed to two treatments of vemurafenib in a week for 72 hours each. Cytotoxicity of these cells was evaluated intermittently by sulforhodamine B assay. […] Cells were exposed to two treatments of vemurafenib in a week for 72 hours each. Cytotoxicity of these cells was evaluated intermittently by sulforhodamine B assay.

A375 cells = assay: Development of resistance to vemurafenib in A375 cells, cytotoxicity evaluated intermittently by SRB assay; settings: for Fold Resistance: A375; for IC50: Homo sapiens
Method: as §1, §2

SK-MEL-28-R cells = assay: SRB cell survival in vemurafenib resistant SK-MEL-28-R cells
Method: (§3) Each study was performed three times independently. Mcl-1 inhibitor overcomes vemurafenib resistance in melanoma cells. […] The cell survival was evaluated by sulforhodamine B assay.
(§4) FIGS. 4A to 4D show the silencing Mcl-1 reverses vemurafenib resistance. […] The cell survival was evaluated by sulforhodamine B assay.
as §1
(§5) Mcl-1 silencing. Silencing of Mcl-1 was achieved according to the protocol described by the inventors (27). Briefly, 0.3×10^6 cells were plated in OPTI-MEM without antibiotics and transfected with either Mcl-1 siRNA or scrambled siRNA. Complexes were prepared by incubating […] siRNA with 8 μl siPORT transfection reagent in 200 μl OPTI-MEM media without serum or antibiotic for 20 minutes. These complexes were then added to the cells. Six hours after transfection, complexes were replaced with fresh medium.

[1] = system: A375 cells transfected with Mcl-1 plasmid; assay: SRB cell survival in A375 cells transfected with Mcl-1 plasmid; settings: Mcl-1 overexpressing A375 (transient), 72 hours
Method: FIG. 3A (A375 cells) and FIG. 3B SK-MEL-28 cells untransfected or transfected with Mcl-1 plasmid were treated with 0.2 μM and 0.4 μM vemurafenib for 72 hours. The cell survival was evaluated by sulforhodamine B assay. […] FIG. 3E A375 and A375-Mcl-1+/+ or FIG. 3F, SK-MEL-28 and SK-MEL-28-Mcl-1+/+ were treated with 0.2 μM and 0.4 μM vemurafenib for 72 hours. The cell survival was evaluated by sulforhodamine B assay.
FIG. 8A (A375) and FIG. 8B (SK-MEL-28) untransfected or transfected with Mcl-1 plasmid were treated with 10 nM dabrafenib or 2 nM trametinib for 72 hours. FIG. 8C A375 and FIG. 8D SK-MEL 28 cells untransfected or transfected with Mcl-1 plasmid were treated with 400 nM vemurafenib or 2 nM trametinib for 72 hours. The cell survival was evaluated by sulforhodamine B assay.
Mcl-1 overexpression. A375 or SK-MEL-28 cells were transiently or stably transfected with plasmid overexpressing Mcl-1 by nucleofection kit (Lonza, Basel, Switzerland) according to manufacturer's protocol and previously described by the inventors (26). Briefly, 2×10^6 cells were suspended in a reaction mixture from the kit specific to the cell line (Kit V for A375 and Kit R for SK-MEL-28 cells). The cells were transferred to the cuvettes and nucleofected using the nucleofector instrument (Amaxa, Cologne, Germany). […]

A375-R cells = assay: SRB cell survival in vemurafenib resistant A375-R cells
Method: as §3, §4, §1, §5

CCCS(=O)(=O)Nc1ccc(F)c(C(=O)c2c[nH]c3ncc(-c4ccc(Cl)cc4)cc23)c1F [vemurafenib]
IC50 (SK-MEL-28 cells; SK-MEL-28, Month 0, vemurafenib 0 μM): 0.075 µM | IC50 (SK-MEL-28 cells; SK-MEL-28, Month 1, vemurafenib 0.2 μM): 0.158 µM | IC50 (SK-MEL-28 cells; SK-MEL-28, Month 2, vemurafenib 0.2 μM): 0.162 µM | IC50 (SK-MEL-28 cells; SK-MEL-28, Month 3, vemurafenib 0.4 μM): 0.264 µM | IC50 (SK-MEL-28 cells; SK-MEL-28, Month 4, vemurafenib 0.4 μM): 0.315 µM | IC50 (SK-MEL-28 cells; SK-MEL-28, Month 5, vemurafenib 0.8 μM): 0.61 µM | IC50 (SK-MEL-28 cells; SK-MEL-28, Month 6, vemurafenib 0.8 μM): 0.673 µM | IC50 (SK-MEL-28 cells; SK-MEL-28, Month 7, vemurafenib 1 μM): 0.735 µM | IC50 (SK-MEL-28 cells; SK-MEL-28, Month 8, vemurafenib 1 μM): 0.754 µM | IC50 (SK-MEL-28 cells; SK-MEL-28, Month 9, vemurafenib 4 μM): 0.824 µM | IC50 (SK-MEL-28 cells; SK-MEL-28, Month 10, vemurafenib 8 μM): 1.24 µM | IC50 (SK-MEL-28 cells; SK-MEL-28, Month 11, vemurafenib 8 μM): 1.86 µM | IC50 (SK-MEL-28 cells; SK-MEL-28, Month 12, vemurafenib 10 μM): 3.3 µM | Fold Resistance (SK-MEL-28 cells; Month 0, vemurafenib 0 μM): 1 | Fold Resistance (SK-MEL-28 cells; Month 1, vemurafenib 0.2 μM): 2.1 | Fold Resistance (SK-MEL-28 cells; Month 2, vemurafenib 0.2 μM): 2.24 | Fold Resistance (SK-MEL-28 cells; Month 3, vemurafenib 0.4 μM): 3.52 | Fold Resistance (SK-MEL-28 cells; Month 4, vemurafenib 0.4 μM): 4.2 | Fold Resistance (SK-MEL-28 cells; Month 5, vemurafenib 0.8 μM): 8.13 | Fold Resistance (SK-MEL-28 cells; Month 6, vemurafenib 0.8 μM): 8.97 | Fold Resistance (SK-MEL-28 cells; Month 7, vemurafenib 1 μM): 9.8 | Fold Resistance (SK-MEL-28 cells; Month 8, vemurafenib 1 μM): 10.05 | Fold Resistance (SK-MEL-28 cells; Month 9, vemurafenib 4 μM): 10.99 | Fold Resistance (SK-MEL-28 cells; Month 10, vemurafenib 8 μM): 16.48 | Fold Resistance (SK-MEL-28 cells; Month 11, vemurafenib 8 μM): 24.85 | Fold Resistance (SK-MEL-28 cells; Month 12, vemurafenib 10 μM): 44 | Fold Resistance (A375 cells; Month 0, vemurafenib 0 μM): 1 | Fold Resistance (A375 cells; Month 1, vemurafenib 0.2 μM): 2.15 | Fold Resistance (A375 cells; Month 2, vemurafenib 0.2 μM): 2.85 | Fold Resistance (A375 cells; Month 3, vemurafenib 0.4 μM): 4.1 | Fold Resistance (A375 cells; Month 4, vemurafenib 0.4 μM): 4.5 | Fold Resistance (A375 cells; Month 5, vemurafenib 0.8 μM): 4.85 | Fold Resistance (A375 cells; Month 6, vemurafenib 0.8 μM): 5.6 | Fold Resistance (A375 cells; Month 7, vemurafenib 1 μM): 8.5 | Fold Resistance (A375 cells; Month 8, vemurafenib 1 μM): 9.7 | Fold Resistance (A375 cells; Month 9, vemurafenib 4 μM): 12.5 | Fold Resistance (A375 cells; Month 10, vemurafenib 8 μM): 18.4 | Fold Resistance (A375 cells; Month 11, vemurafenib 8 μM): 26 | Fold Resistance (A375 cells; Month 12, vemurafenib 10 μM): 30 | IC50 (A375 cells; A-375, Month 0, vemurafenib 0 μM): 0.1 µM | IC50 (A375 cells; A-375, Month 1, vemurafenib 0.2 μM): 0.215 µM | IC50 (A375 cells; A-375, Month 2, vemurafenib 0.2 μM): 0.285 µM | IC50 (A375 cells; A-375, Month 3, vemurafenib 0.4 μM): 0.41 µM | IC50 (A375 cells; A-375, Month 4, vemurafenib 0.4 μM): 0.45 µM | IC50 (A375 cells; A-375, Month 5, vemurafenib 0.8 μM): 0.485 µM | IC50 (A375 cells; A-375, Month 6, vemurafenib 0.8 μM): 0.56 µM | IC50 (A375 cells; A-375, Month 7, vemurafenib 1 μM): 0.85 µM | IC50 (A375 cells; A-375, Month 8, vemurafenib 1 μM): 0.97 µM | IC50 (A375 cells; A-375, Month 9, vemurafenib 4 μM): 1.25 µM | IC50 (A375 cells; A-375, Month 10, vemurafenib 8 μM): 1.84 µM | IC50 (A375 cells; A-375, Month 11, vemurafenib 8 μM): 2.6 µM | IC50 (A375 cells; A-375, Month 12, vemurafenib 10 μM): 3 µM | Decrease of cell survival (SK-MEL-28-R cells; SK-MEL-28-R cells, Mcl-1 silenced by siRNA, then 0.4 μM vemurafenib 72 hours): 55% | IC50 (SK-MEL-28-R cells; SK-MEL-28R cells, 72 hours): 3300 nM | Reduction of cell survival ([1]; 0.2 μM vemurafenib): 18% | Reduction of cell survival ([1]; 0.4 μM vemurafenib): 24% | Decrease of cell survival (A375-R cells; A375-R cells, Mcl-1 silenced by siRNA, then 0.4 μM vemurafenib 72 hours): 65% | IC50 (A375-R cells; A375R cells, 72 hours): 3000 nM
